Laboratory results as given in patent US11717511B2, “Pharmaceutical composition comprising derivative compound of 1,2-naphthoquinone for preventing or treating solid cancer or blood cancer” (HUEN Co., Ltd., priority 2018, dated 2023).

Key:
[1] = system: K562 cells (chronic myeloid leukemia); assay: Cell viability of K562 cells, WST assay; format: cell-based, human; conditions: 0.1-5 μM
Description: K562 cells obtained from a -person with chronic myeloid leukemia were incubated in RPMI medium containing 10% fetal bovine serum (FBS) at 37 °C in a 5% CO2 incubator, and subcultured every 2 days before use in the test.
K562 cells incubated in Example 3-1 were seeded at 1×10^5 cells/well in a 96-well plate, and then for cell stabilization, the cells were incubated at 37 °C in a 5% CO2 incubator for 16 hours or longer. Thereafter, the cells were treated with compounds 99, 163, 191, and 192 (0.1-5 μM) out of the compounds synthesized in Example 1-1, and then incubated for 4 hours. DMSO was used as a control. After 4 hours of incubation, 10 μl of WST solution was added to the cells, followed by incubation for 2 hours, and then the absorbance at 450 nm was measured by a multi-scan machine.

[2] = system: A549 (lung carcinoma) cells; assay: Cell viability of solid cancer cells, WST assay, A549; format: cell-based; conditions: Homo sapiens, 1-30 μM, 6 hours
Source text: (§1) To investigate availability as a medicine for solid cancer, A549 cell line obtained from a -person with lung carcinoma, HeLa cell line obtained from a person with cervix adenocarcinoma, HepG2 cell line obtained from a child with hepatocellular carcinoma, MCF7 cell line obtained from a person with breast adenocarcinoma, and Beas-2B cell line obtained from normal lung for comparison with solid cancer cell line were used.
(§2) A549 (lung carcinoma), HeLa (cervix adenocarcinoma), HepG2 (hepatocellular carcinoma), MCF7 (breast adenocarcinoma), and Beas-2B (normal lung) cell lines were incubated in DMEM medium containing 10% FBS at 37 °C in a 5% CO2 incubator, and subcultured every 2 days before use in the test.
(§3) A549 (lung carcinoma), HeLa (cervix adenocarcinoma), HepG2 (hepatocellular carcinoma), MCF7 (breast adenocarcinoma), and Beas-2B (normal lung) cells were seeded at 1×10^4 cells/well in a 96-well plate, and then for cell stabilization, the cells were incubated at 37 °C in a 5% CO2 incubator for 16 hours or longer. Thereafter, the cells were treated with compounds 99, 163, 191, and 192 (1-30 μM) out of the compounds synthesized in Example 1-1, and then incubated for 6 hours. DMSO and β-lapachone were used as a control. After 4 hours of incubation, 10 μl of WST solution was added to the cells, followed by incubation for 2 hours, and then the absorbance at 450 nm was measured by a multi-scan machine. The cell viability of A549 (lung carcinoma), HeLa (cervix adenocarcinoma), HepG2 (hepatocellular carcinoma), MCF7 (breast adenocarcinoma), and Beas-2B (normal lung) cells is shown in Table 5 and FIG. 5.

[3] = system: HeLa (cervix adenocarcinoma) cells; assay: Cell viability of solid cancer cells, WST assay, HeLa; format: cell-based; conditions: Homo sapiens, 1-30 μM, 6 hours
Source text: as §1, §2, §3

[4] = system: HepG2 (hepatocellular carcinoma) cells; assay: Cell viability of solid cancer cells, WST assay, HepG2; format: cell-based; conditions: Homo sapiens, 1-30 μM, 6 hours
Source text: as §1, §2, §3

[5] = system: MCF7 (breast adenocarcinoma) cells; assay: Cell viability of solid cancer cells, WST assay, MCF7; format: cell-based; conditions: Homo sapiens, 1-30 μM, 6 hours
Source text: as §1, §2, §3

[6] = system: KG1α cells (refractory acute myeloid leukemia); assay: Cell viability of KG1α cells, WST assay; format: cell-based, human; conditions: 0.1-3 μM
Description: Acute leukemia has been identified to have a wide variety of causative factors and a variety of cell lines have also been established. To investigate the availability as a wide-spectrum medicine but not a medicine for a particular type of acute leukemia, KG1α cells were constructed by selecting only cells having a stem cell phenotype from KG1 cells, which are a cell line obtained from a -person with acute myeloid leukemia, and then used.
KG1α cells were incubated in IMDM containing 20% fetal bovine serum (FBS). All the cells were incubated at 37 °C in a 5% CO2 incubator, and subcultured every 2 or 3 days before use in the test.
KG1α cells, which have resistance to idarubicin and cytarabine, which are acute myeloid leukemia medicines, are refractory acute myeloid leukemia (AML) cells. KG1α cells incubated in Example 2-1 were seeded at 1×10^5 cells/well in a 96-well plate, and then for cell stabilization, the cells were incubated at 37 °C in a 5% CO2 incubator for 16 hours or longer. Thereafter, the cells were treated with compounds 99 and 163 (0.1-3 μM) shown in Table 4 out of the compounds synthesized in Example 1, and then incubated for 24 hours. […] After 24 hours, the cells were treated with 10 μl of WST solution and then incubated for 2 hours, and then the absorbance at 450 nm was measured by a multi-scan machine.

IC50 ([1]; 4 hours) [µM] | IC50 ([1]; Homo sapiens, K562, 4 h) [µM] | IC50 [2] [µM] | IC50 [3] [µM] | IC50 [4] [µM] | IC50 [5] [µM] | IC50 ([6]; 24 hours) [µM] | IC50 ([6]; Homo sapiens, KG-1, 24 h) [µM] | SMILES
1.2 | 1 to 2 | 5 | 4.4 | 12.2 | 11.7 |  |  | Cn1nnc2c1C(=O)C(=O)c1ccccc1-2 [Compound 192]
 | 2.1 | 6.1 | 4.6 | 14.1 | 13 | 0.9 | 0.5 to 1 | CC(C)c1nc2c(s1)C(=O)C(=O)c1ccccc1-2 [Compound 163]
1.6 | 1 to 2 | 8.4 | 6.6 | 13.8 | 14.8 |  |  | Cn1nc2c(n1)-c1ccccc1C(=O)C2=O [Compound 191]
